# Results from paper PMC7170901, “Design and efficient synthesis of pyrazoline and isoxazole bridged indole C-glycoside hybrids as potential anticancer agents” (Scientific Reports, 2020).
# What was measured:
# Format in all cases: cell-based
# [1] = system: MCF-7 breast cancer cells; assay: MTT cell viability assay in MCF-7 cells; settings: Homo sapiens, MCF7, read-out: Cell Viability (%) ± SD
# [2] = MTT cell viability assay in normal MCF-10A cells; settings: human, MCF-10A normal mammary epithelial cells, read-out: Cell Viability (%) ± SD
# Source text: (§1) MDA-MB-231 represents a specific subtype, known as the triple negative breast cancer (TNBC). […] We also included normal mammary epithelial MCF-10A cells in our experiments to confirm if the growth-inhibitory activities of the selected compounds are truly cancer cell-specific. […] Furthermore, none of these compounds did have any growth inhibitory activity against normal breast epithelial cell (MCF-10A). The IC50 values for these compounds against MDA-MB-231 cells (Fig. 2) are also included in Table 4 for comparison. Cell viability assay was performed as per standard protocols. After 72 h of cell incubation in the presence or absence of each compound, cell viability was evaluated by using MTT ((3-(4,5-dimethylthiazol-2-yl)-2,5-diphenyltetrazolium bromide)) (Himedia Pvt. Ltd, India). In brief, this is a homogeneous, colorimetric method for determining the number of viable cells in proliferation, cytotoxicity or chemosensitivity assays. MTT is bio reduced by cells into a formazan product that is […]. After 72 h of compound treatment, the medium was removed and 100 μL of MTT (0.5 mg ml^−1 in media) was added to the cells and kept in the dark for 3 h at 37 °C in the CO2 incubator and the formazan formed was dissolved in 100 μL DMSO (Dimethyl Sulfoxide). The absorbance of the formazan product at 595 nm was measured directly from 96-well assay plates without additional processing using a multimode plate reader (Bio-Rad) (iMark, India), as absorbance is directly proportional to the number of viable cells in culture. The percentage of viable cells in each group is determined with respect to the untreated control cells.
# [3] = system: MDA-MB-231 (human breast cancer) cell line; assay: MTT cell viability assay in MDA-MB-231 cells; settings: for viability at 10 µM / viability at 25 µM / viability at 50 µM: MDA-MB-231, 72 h; for viability at 10 µM / viability at 25 µM / viability at 50 µM / Cell Viability (%) ± SD: 72 h, MTT
# Experimental: IC50 values were determined by plotting values of percent cell viability against concentration of each of these compounds. […] The experiments were performed in triplicates, n = 3 and ± SE value was calculated for each data point.
# The human breast cancer cell line MDA-MB-231 were cultured in Dulbecco’s Modified Eagle’s Medium (DMEM) (Gibco, St. Louis, USA) supplemented with 10% heat inactivated FBS (Fetal Bovine Serum, Gibco, USA) and 1% penicillin-streptomycin (Gibco Canada) in humidified CO2 incubator at 37 °C. The cells were maintained as a monolayer in 100 mm culture plate. The cells used for each experiment were of less than 8 passage number. Sub culturing of cells was performed every third day, followed by trypsin EDTA treatment.
# Cell viability assay was performed as per standard protocols. […] Ltd, India). In brief, this is a homogeneous, colorimetric method for determining the number of viable cells in proliferation, cytotoxicity or chemosensitivity assays. MTT is bio reduced by cells into a formazan product that is soluble in the tissue culture medium. […] The absorbance of the formazan product at 595 nm was measured directly from 96-well assay plates without additional processing using a multimode plate reader (Bio-Rad) (iMark, India), as absorbance is directly proportional to the number of viable cells in culture. The percentage of viable cells in each group is determined with respect to the untreated control cells.
# [4] = system: MDA-MB-453 cells; assay: MTT cell viability assay in MDA-MB-453 cells; settings: Homo sapiens, read-out: Cell Viability (%) ± SD
# Source text: as §1
# [5] = Homo sapiens, MDA-MB-231, 10 µM, read-out: Cell Viability (%) ± SD
# [6] = Homo sapiens, MDA-MB-231, 25 µM, read-out: Cell Viability (%) ± SD
# [7] = Homo sapiens, MDA-MB-231, 50 µM, read-out: Cell Viability (%) ± SD
Compound,"viability at 10 µM [3, 5] [%]","viability at 25 µM [3, 6] [%]","viability at 50 µM [3, 7] [%]",other results
"O=C(/C=C/c1c[nH]c2ccc([N+](=O)[O-])cc12)C[C@@H]1O[C@H](CO)[C@H](O)[C@H](O)[C@H]1O [Compound 14, (E)-4-(5-nitro-1H-indol-3-yl)-1-((2S,3R,4R,5R,6R)-3,4,5-trihydroxy-6-(hydroxymethyl)tetrahydro-2H-pyran-2-yl)but-3-en-2-one]",73.6 ± 11.8,59 ± 12.5,60.6 ± 5.61,"viability at 1 µM ([1]; MCF-7, 1 µM): 100 ± 4.5%; viability at 10 µM ([1]; MCF-7, 10 µM): 69.8 ± 1.8%; viability at 25 µM ([1]; MCF-7, 25 µM): 66.8 ± 3%; viability at 72 h, 25 µM ([2]; 25 µM): 86.8 ± 2.8%; viability at 72 h, 50 µM ([2]; 50 µM): 84.6 ± 0.7%; viability at 72 h, 100 µM ([2]; 100 µM): 80 ± 1.5%; viability at 1 µM ([4]; MDA-MB-453, 1 µM): 80.8 ± 3.2%; viability at 10 µM ([4]; MDA-MB-453, 10 µM): 82.2 ± 11.5%; viability at 25 µM ([4]; MDA-MB-453, 25 µM): 65.3 ± 5.8%"
"OC[C@H]1O[C@@H](Cc2cc(-c3c[nH]c4ccc(Cl)cc34)on2)[C@H](O)[C@@H](O)[C@@H]1O [Compound 36, (2 S,3 R,4 R,5 S,6 R)-2-((5-(5-chloro-1H-indol-3-yl)isoxazol-3-yl)methyl)-6-(hydroxymethyl) tetrahydro-2H-pyran-3,4,5-triol]",97.8 ± 11.6,96.8 ± 11.6,99.3 ± 4.28,–
"O=[N+]([O-])c1ccc2[nH]cc(-c3cc(C[C@@H]4O[C@H](CO)[C@H](O)[C@H](O)[C@H]4O)no3)c2c1 [Compound 38, (2 R,3 R,4 R,5 R,6 S)-2-(hydroxymethyl)-6-((5-(5-nitro-1H-indol-3-yl)isoxazol-3-yl)methyl) tetrahydro-2H-pyran-3,4,5-triol]",99.1 ± 5.63,94.5 ± 3.67,94.9 ± 4.49,–
"OC[C@H]1O[C@@H](Cc2cc(-c3c[nH]c4ccc(Br)cc34)on2)[C@H](O)[C@@H](O)[C@H]1O [Compound 39, (2 S,3 R,4 R,5 R,6 R)-2-((5-(5-bromo-1H-indol-3-yl)isoxazol-3-yl)methyl)-6-(hydroxymethyl) tetrahydro-2H-pyran-3,4,5-triol]",120 ± 17.6,89.4 ± 5.32,90.3 ± 2.88,–
"OC[C@H]1O[C@@H](Cc2cc(-c3c[nH]c4ccc(Cl)cc34)on2)[C@H](O)[C@@H](O)[C@H]1O [Compound 40, (2 S,3 R,4 R,5 R,6 R)-2-((5-(5-chloro-1H-indol-3-yl)isoxazol-3-yl)methyl)-6-(hydroxymethyl) tetrahydro-2H-pyran-3,4,5-triol]",93.7 ± 2.68,96 ± 1.81,87.9 ± 4.71,–
"OC[C@H]1O[C@@H](Cc2cc(-c3c[nH]c4ccccc34)on2)[C@@H](O)[C@@H](O)[C@@H]1O [Compound 41, (2 S,3 S,4 R,5 S,6 R)-2-((5-(1H-indol-3-yl)isoxazol-3-yl)methyl)-6-(hydroxymethyl) tetrahydro-2H-pyran-3,4,5-triol]",89.2 ± 3.7,81.2 ± 5.17,74 ± 17.6,–
"O=[N+]([O-])c1ccc2[nH]cc(-c3cc(C[C@@H]4O[C@H](CO)[C@@H](O)[C@H](O)[C@@H]4O)no3)c2c1 [Compound 42, (2 R,3 S,4 R,5 S,6 S)-2-(hydroxymethyl)-6-((5-(5-nitro-1H-indol-3-yl)isoxazol-3-yl)methyl) tetrahydro-2H-pyran-3,4,5-triol]",92.6 ± 11.5,93.4 ± 15.7,95.2 ± 13.6,–
"OC[C@H]1O[C@@H](Cc2cc(-c3c[nH]c4ccc(Br)cc34)on2)[C@@H](O)[C@@H](O)[C@@H]1O [Compound 43, (2 S,3 S,4 R,5 S,6 R)-2-((5-(5-bromo-1H-indol-3-yl)isoxazol-3-yl)methyl)-6-(hydroxymethyl) tetrahydro-2H-pyran-3,4,5-triol]",96.6 ± 3.98,85.2 ± 2.93,95.7 ± 3.26,–
"OC[C@H]1O[C@@H](Cc2cc(-c3c[nH]c4ccc(Cl)cc34)on2)[C@@H](O)[C@@H](O)[C@@H]1O [Compound 44, (2 S,3 S,4 R,5 S,6 R)-2-((5-(5-chloro-1H-indol-3-yl)isoxazol-3-yl)methyl)-6-(hydroxymethyl) tetrahydro-2H-pyran-3,4,5-triol]",83.9 ± 4.08,82.9 ± 5.28,81.7 ± 3.45,–
"CC1=CC(=O)c2ccccc2C1=O [Menadione, menadione, reference compound]",–,–,–,"viability at 20 µM ([3]; Homo sapiens, MDA-MB-231, MDA-MB-231, positive control at 20 µM, read-out: Cell Viability (%) ± SD): 20.8 ± 8.7%"
"COCCn1c2c([n+](Cc3cnccn3)c1C)C(=O)c1ccccc1C2=O [YM155, reference compound]",–,–,–,"viability at 0.02 µM ([1]; MCF-7, positive control at 20 nM): 37.2 ± 1.7%; viability at 72 h, 0.02 µM ([2]; positive control at 20 nM): 48.2 ± 1.6%; viability at 0.02 µM ([3]; Homo sapiens, MDA-MB-231, MDA-MB-231, positive control at 20 nM, read-out: Cell Viability (%) ± SD): 27.4 ± 4.93%; viability at 0.02 µM ([4]; MDA-MB-453, positive control at 20 nM): 33.2 ± 1.5%"
"(E)-4-(1H-indol-3-yl)-1-((2S,3S,4R,5S,6R)-3,4,5-trihydroxy-6-(hydroxymethyl) tetrahydro-2H-pyran-2-yl) but-3-en-2-one [Compound 19]",–,–,–,"Cell Viability (%) ± SD ([3]; MDA-MB-231, 10 µM): 102.51 ± 10.39%; Cell Viability (%) ± SD ([3]; MDA-MB-231, 25 µM): 89.20 ± 28.63%; Cell Viability (%) ± SD ([3]; MDA-MB-231, 50 µM): 71.48 ± 6.24%"
